Reference: US11661431B2, “Thienopyrrole compounds” (Gilead Sciences, Inc., priority 2021, dated 2023)
pEC50, pIC50: −log10 of the molar value. Converted amounts (≈) assume the structure as drawn.

Experiments:
[1] = target: TLR7 (Homo sapiens (Human), UniProt Q9NYK1); test: TLR7 human peripheral blood mononuclear cell (PBMC) cell-based assay (GS-986 as agonist; IL-6 and IFNα readout); conditions: human PBMCs, TLR7 agonist GS-986 at 400 nM, 6 hours, antagonist potency; read-out: TLR-7 EC50
Procedure, shortened: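 Human PBMCs (100,000 cells/well) preincubated 1 h at 37 °C with antagonist in 10-point dose response, then stimulated with TLR7 agonist for a further 6 h at 37 °C, 5% CO2. Supernatant IL-6 and IFNα measured by electrochemiluminescence immunoassay.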

[2] = target: TLR8 (Homo sapiens (Human), UniProt Q9NR97); test: TLR8 human peripheral blood mononuclear cell (PBMC) cell-based assay (Compound A as agonist; TNFα and IL12p40 readout); conditions: human PBMCs, TLR8 agonist Compound A at 800 nM, 6 hours, antagonist potency; read-out: TLR-8 EC50
Chain of TLR8 (Q9NR97 27-1041): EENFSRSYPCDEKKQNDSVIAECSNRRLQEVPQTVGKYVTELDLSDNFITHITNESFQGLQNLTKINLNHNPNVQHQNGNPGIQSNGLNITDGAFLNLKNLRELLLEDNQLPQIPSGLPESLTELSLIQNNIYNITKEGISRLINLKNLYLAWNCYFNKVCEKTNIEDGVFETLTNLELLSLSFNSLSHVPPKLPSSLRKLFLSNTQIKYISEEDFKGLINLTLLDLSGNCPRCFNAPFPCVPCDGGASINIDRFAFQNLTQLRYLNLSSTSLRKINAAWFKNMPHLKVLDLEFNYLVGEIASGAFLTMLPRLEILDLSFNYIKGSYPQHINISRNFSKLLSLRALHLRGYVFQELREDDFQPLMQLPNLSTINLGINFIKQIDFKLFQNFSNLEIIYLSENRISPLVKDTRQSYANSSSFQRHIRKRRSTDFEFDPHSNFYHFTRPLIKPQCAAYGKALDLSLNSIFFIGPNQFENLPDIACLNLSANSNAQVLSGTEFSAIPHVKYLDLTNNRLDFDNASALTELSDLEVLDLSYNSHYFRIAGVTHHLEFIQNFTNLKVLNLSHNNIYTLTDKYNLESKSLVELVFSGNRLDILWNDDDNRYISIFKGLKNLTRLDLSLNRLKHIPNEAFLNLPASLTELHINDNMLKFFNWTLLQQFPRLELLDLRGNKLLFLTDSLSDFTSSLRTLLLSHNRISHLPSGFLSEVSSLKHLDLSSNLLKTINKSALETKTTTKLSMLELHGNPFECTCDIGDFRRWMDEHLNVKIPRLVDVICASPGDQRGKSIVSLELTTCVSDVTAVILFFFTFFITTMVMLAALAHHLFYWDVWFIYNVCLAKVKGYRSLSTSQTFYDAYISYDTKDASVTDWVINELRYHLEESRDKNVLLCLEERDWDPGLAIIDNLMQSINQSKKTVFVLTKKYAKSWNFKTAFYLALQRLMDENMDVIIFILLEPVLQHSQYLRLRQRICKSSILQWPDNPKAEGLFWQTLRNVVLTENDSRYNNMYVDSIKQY

[3] = target: MATE2-K (multidrug and toxin extrusion protein 2) (Homo sapiens (Human), UniProt Q86VL8); test: MATE2-K IC50 assay (14C-metformin uptake in transfected MDCK-II cells); assay type: in vitro ADME
Chain of MATE2-K (multidrug and toxin extrusion protein 2) (Q86VL8 other isoform, or with tags, fused parts or gaps, species assumed): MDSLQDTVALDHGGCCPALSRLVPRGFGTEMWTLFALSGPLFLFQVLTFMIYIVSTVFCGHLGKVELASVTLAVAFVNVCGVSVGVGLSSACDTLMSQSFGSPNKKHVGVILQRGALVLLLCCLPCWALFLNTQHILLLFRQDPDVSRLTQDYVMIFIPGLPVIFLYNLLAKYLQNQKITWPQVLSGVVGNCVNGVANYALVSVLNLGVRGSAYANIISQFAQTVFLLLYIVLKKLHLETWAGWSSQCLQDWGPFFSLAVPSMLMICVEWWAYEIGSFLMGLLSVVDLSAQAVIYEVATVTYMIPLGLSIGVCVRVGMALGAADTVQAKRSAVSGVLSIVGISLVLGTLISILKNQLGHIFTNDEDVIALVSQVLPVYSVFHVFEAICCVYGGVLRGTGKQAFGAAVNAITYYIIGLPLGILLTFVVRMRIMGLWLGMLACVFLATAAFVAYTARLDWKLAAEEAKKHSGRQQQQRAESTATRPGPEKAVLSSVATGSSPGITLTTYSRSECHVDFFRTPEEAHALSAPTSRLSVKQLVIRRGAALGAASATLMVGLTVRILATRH
Description: MATE2-K (multidrug and toxin extrusion protein 2) is expressed in the apical membrane in the kidney and mediates the elimination of compounds to urine. MDCK-II cells were maintained in DMEM with low glucose and 10% FBS. Cells passages up to 40 were seeded at 60K±10K cells/well on 96-well, transwell membrane plates approximately 24 hours before transfection. Transport assays were carried out approximately 48 hours after transfection. […]. The assay plate was then placed in a 37° C. incubator with orbital shaking at approximately 60 RPM for the pre-incubation time of 15 minutes. […]. The assay plate was incubated at 37° C. with orbital shaking at approximately 60 RPM for the incubation time of 5 minutes. At end of the 5-minute incubation, 15 μL of dosing solution was removed from each well containing the compound being tested and measured using LC/MS/MS for dose recovery assessment. The assay wells were then washed four times with ice cold PBS. 60 μL cell extraction solution was added to each well and the plate was incubated at 37° C. with orbital shaking at approximately 60 RPM for the 15 minutes. After this incubation, 30 μL was removed from each well, added to 200 μL scintillation fluid, and counted on a 1450 Microbeta (Perkin-Elmer) to measure the probe substrate uptake. Inhibition potential of the compound being tested was calculated by dividing the transporter-mediated uptake rate in presence of the compound being tested or the reference inhibitor by the transporter-mediated uptake rate in presence of vehicle control and fitted to a sigmoidal function to determine the IC50 values.

[4] = tested on: cryopreserved hepatocytes; conditions: human, 1 μM
Description: Each tested compound was incubated in suspensions of cryopreserved hepatocytes at a final concentration of 1 μM. Vials containing cryopreserved hepatocytes were removed from liquid nitrogen and immediately immersed in a 37° C. water bath. The vials were swirled gently until the contents had thawed. They were then immediately emptied into 48 mL of pre-warmed HT medium in a 50 mL conical tube. Cells remaining in the vial were resuspended with 1.0 mL of pre-warmed HT medium and added to the conical tube. The tube was capped and then gently inverted several times to re-suspend the hepatocytes. The cell suspension was centrifuged at 500×g for 10 minutes at room temperature and the supernatant discarded. The cell pellet was loosened by gently swirling the centrifuge tube. Non-supplemented KHB medium was added to obtain the appropriate target cell density.
For incubations, aliquots of hepatocyte suspension (250 mL at a concentration of 2×10^6 cells/mL) were added to 250 mL of 2 mM of each tested compound in KHB, in duplicate wells in a 24-well plate. Final concentration in the incubations were 1×10^6 cells/mL and 1 mM of each tested compound. […] A cell-free control was also tested in parallel with the incubations. The incubations were carried out with gentle shaking in a 37° C. incubator under a humid atmosphere of 95% air/5% CO2 (v/v). Aliquots (100 mL) were removed after 0, 1, 3, and 6 hours and added to 200 mL IS/Q. The samples were then placed on a shaker for 10 min followed by centrifugation at 3000×g for 20 min. The supernatant was transferred to a new plate and diluted with 100 μL of water to reduce the organic solvent content and then placed on a shaker for 10 mins. Samples were injected and analyzed using LC-MS/MS.

[5] = physchem; conditions: 22.8 °C, pH 7.4, aqueous buffer, kinetic from dmso stock
Description: Kinetic Solubility at pH 7.4
The final DMSO Concentration was 1.0% and maximum theoretical compound concentration is 100 μM. The filter plate was sealed. […] The collection plate was sealed for analysis.
Filtrates were injected into the nitrogen detector for quantification on Analiza's Automated Discovery Workstation. The results are reported in μg/ml.
The filtrates were quantified with respect to this calibration curve. The calculated solubility values were corrected for background nitrogen present in the DMSO, and the media used to prepare the samples.
The 1×PBS buffer (pH 7.4) was prepared by adding 50 mL of phosphate buffered saline solution 10×, PBS (Fisher Bioreagent part number BP399-500) to approximately 450 mL HPLC grade H2O. The volume of the solution was then adjusted to 500 mL for a total dilution factor of 1:10 and a final PBS concentration of 1×. The pH of the final solution was measured and found to be 7.4.
Each compound tested was analyzed as a trifluoroacetate salt.

Chain of TLR7 (Q9NYK1 27-1049): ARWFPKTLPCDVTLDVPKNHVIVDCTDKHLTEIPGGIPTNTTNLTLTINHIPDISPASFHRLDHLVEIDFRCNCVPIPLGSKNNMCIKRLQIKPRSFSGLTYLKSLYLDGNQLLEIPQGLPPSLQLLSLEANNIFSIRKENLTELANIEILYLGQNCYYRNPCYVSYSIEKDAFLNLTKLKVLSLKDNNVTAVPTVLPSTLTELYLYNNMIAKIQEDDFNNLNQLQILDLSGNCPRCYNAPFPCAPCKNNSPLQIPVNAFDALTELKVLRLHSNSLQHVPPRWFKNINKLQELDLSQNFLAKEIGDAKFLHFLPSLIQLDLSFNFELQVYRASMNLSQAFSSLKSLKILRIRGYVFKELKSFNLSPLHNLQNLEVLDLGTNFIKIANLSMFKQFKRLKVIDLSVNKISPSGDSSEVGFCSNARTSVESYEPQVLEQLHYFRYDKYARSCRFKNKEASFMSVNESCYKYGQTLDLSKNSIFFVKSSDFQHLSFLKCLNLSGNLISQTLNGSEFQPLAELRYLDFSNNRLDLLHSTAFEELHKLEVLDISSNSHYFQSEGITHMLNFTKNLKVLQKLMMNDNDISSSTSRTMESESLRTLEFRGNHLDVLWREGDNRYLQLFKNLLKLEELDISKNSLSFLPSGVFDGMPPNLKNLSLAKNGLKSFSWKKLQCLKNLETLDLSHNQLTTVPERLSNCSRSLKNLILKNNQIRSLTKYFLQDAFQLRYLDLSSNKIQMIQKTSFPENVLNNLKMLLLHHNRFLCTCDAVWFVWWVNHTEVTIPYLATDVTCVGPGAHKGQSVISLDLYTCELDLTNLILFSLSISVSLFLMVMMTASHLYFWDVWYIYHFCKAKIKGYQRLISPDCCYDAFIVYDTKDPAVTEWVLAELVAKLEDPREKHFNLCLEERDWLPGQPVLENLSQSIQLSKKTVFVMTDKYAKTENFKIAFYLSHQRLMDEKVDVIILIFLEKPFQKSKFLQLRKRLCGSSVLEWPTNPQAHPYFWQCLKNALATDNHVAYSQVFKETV

Cc1c(-c2[nH]c3sc([C@@H]4C[C@H]5CC[C@@H](C4)N5CC(N)=O)c(C)c3c2C(C)C)cn2ncnc2c1C [Example 91]
pEC50 [1]: 10.05 | pEC50 [2]: 8.27 | pIC50 [3]: 5.11 | Predicted Clearance [4]: 0.24 L/h/kg | solubility kinetic at 24 h [5]: 2.2 µg/mL (≈ 4.48 µM)
